Patent publication US10450263B2, “Benzo annulenes as antiviral agents” (Southern Research Institute, priority 2017, dated 2019)
Where two headings read alike, the source gives them in different places.

Legend:
Chikungunya virus = assay: Evaluation of antiviral activity against Chikungunya virus (EC90); type: cell-based
Excerpt: EC90 refers to the concentration of the compound that is required for 90% antagonism or inhibition of CHIKV. EC90 also refers to the concentration of a substance that is required for 90% antagonism or inhibition of CHIKV in vivo.
(§1) The compounds below in Table 1 were synthesized with methods identical or analogous to those described herein. The requisite starting materials were commercially available, described in the literature, or readily synthesized by one skilled in the art of organic synthesis.

[1] = CC50 reported alongside the CHIKV antiviral assay (cytotoxicity); type: cell-based; conditions: cell line not given
Excerpt: as §1

[2] = Chikungunya virus, read-out: EC90 (μM) CHIKV, concentration required for 90% inhibition of CHIKV

| Compound | EC90 (Chikungunya virus; [2]) [µM] | CC50 [1] [µM] | EC90 (Chikungunya virus; concentration required for 90% inhibition of CHIKV, read-out: EC90 (μM) CHIKV) [µM] |
| --- | --- | --- | --- |
| COc1cc2c(cc1NC(=O)c1ccc(C(C)(C)C)s1)CCCCC2 [Compound 38, 5-(tert-Butyl)-N-(3-methoxy-6,7,8,9-tetrahydro-5H-benzo[7]annulen-2-yl)thiophene-2-carboxamide] | 3.1 | 32 |  |
| COc1cc2c(cc1NC(=O)c1ccc(C(F)(F)F)cc1)CCCCC2 [Compound 74, N-(3-methoxy-6,7,8,9-tetrahydro-5H-benzo[7]annulen-2-yl)-4-(trifluoromethyl)benzamide] | 7.4 | > 30 |  |
| COc1cc2c(cc1NC(=O)C13C[C@H]4C[C@@H](C1)C[C@@H](C3)C4)CCCCC2 [Compound 42, (3r,5r,7r)-N-(3-methoxy-6,7,8,9-tetrahydro-5H-benzo[7]annulen-2-yl)adamantane-1-carboxamide] | 12.1 | > 30 |  |
| COc1cc2c(cc1NC(=O)c1ccc(C3(O)CCC3)cc1)CCCCC2 [Compound 66, 4-(1-Hydroxycyclobutyl)-N-(3-methoxy-6,7,8,9-tetrahydro-5H-benzo[7]annulen-2-yl)benzamide] | > 10 | > 30 |  |
| CC(=O)Oc1cc2c(cc1NC(=O)c1ccc(C(C)(C)C)cc1)CCCCC2 [Compound 16, 3-(4-(tert-Butyl)benzamido)-6,7,8,9-tetrahydro-5H-benzo[7]annulen-2-yl acetate] | 2.8 | > 30 |  |
| COc1cc2c(cc1NC(=O)c1ccc(N(C)C)cc1)CCCCC2 [Compound 76, 4-(Dimethylamino)-N-(3-methoxy-6,7,8,9-tetrahydro-5H-benzo[7]annulen-2-yl)benzamide] | > 10 | > 30 |  |
| CC(C)(C)c1ccc(C(=O)Nc2ccc3c(c2OC(F)(F)F)CCCCC3)cc1 [Compound 87, 4-(tert-butyl)-N-(1-(trifluoromethoxy)-6,7,8,9-tetrahydro-5H-benzo[7]annulen-2-yl)benzamide] | 19.5 | > 30 |  |
| 3,5-Difluoro-N-(3-methoxy-6,7,8,9-tetrahydro-5H-benzo[7]annulen-2-yl)picolinamide [Compound 77] |  | > 30 | 2.9 |
| COc1cc2c(cc1NC(=O)c1cc(C(C)(C)C)c(O)c(C(C)(C)C)c1)CCCCC2 [Compound 70, 3,5-Di-tert-butyl-4-hydroxy-N-(3-methoxy-6,7,8,9-tetrahydro-5H-benzo[7]annulen-2-yl)benzamide] | 44.8 | > 30 |  |
| COc1cc2c(cc1NC(=O)c1cc(F)c(C(C)(C)C)c(F)c1)CCCCC2 [Compound 90, 4-(tert-butyl)-3,5-difluoro-N-(3-methoxy-6,7,8,9-tetrahydro-5H-benzo[7]annulen-2-yl)benzamide] | 3.3 | > 30 |  |
| COc1cc2c(cc1NC(=O)c1ccc(-c3ccccn3)cc1)CCCCC2 [Compound 67, N-(3-Methoxy-6,7,8,9-tetrahydro-5H-benzo[7]annulen-2-yl)-4-(pyridin-2-yl)benzamide] | > 10 | > 30 |  |
| CC(C)(C)c1ccc(C(=O)Nc2cc3c(cc2OCc2ccccn2)CCCCC3)cc1 [Compound 85, 4-(tert-Butyl)-N-(3-(pyridin-2-ylmethoxy)-6,7,8,9-tetrahydro-5H-benzo[7]annulen-2-yl)benzamide] | > 10 | 9.4 |  |
| COc1cc2c(cc1NC(=O)CCc1ccc(C(C)(C)C)cc1)CCCCC2 [Compound 68, 3-(4-(tert-Butyl)phenyl)-N-(3-methoxy-6,7,8,9-tetrahydro-5H-benzo[7]annulen-2-yl)propanamide] | > 10 | > 30 |  |
| COc1c(NC(=O)c2ccc(C(C)(C)C)cc2)cc2c(c1F)CCCCC2 [Compound 23, 4-(tert-butyl)-N-(4-fluoro-3-methoxy-6,7,8,9-tetrahydro-5H-benzo[7]annulen-2-yl)benzamide] | 12.5 | > 30 |  |
| CC(C)(C)n1nc(C(=O)Nc2ccc3c(c2)CCCCC3)cc1C(F)(F)F [Compound 27, 1-(tert-butyl)-N-(6,7,8,9-tetrahydro-5H-benzo[7]annulen-2-yl)-5-(trifluoromethyl)-1H-pyrazole-3-carboxamide] | > 10 | > 30 |  |
| COc1cc2c(cc1NC(=O)c1cn(C)cn1)CCCCC2 [Compound 32, N-(3-methoxy-6,7,8,9-tetrahydro-5H-benzo[7]annulen-2-yl)-1-methyl-1H-imidazole-4-carboxamide] | 55.6 | > 30 |  |
| COc1cc2c(cc1NC(=O)Cc1ccc(C(C)(C)C)cc1)CCCCC2 [Compound 54] | 42.9 | > 30 |  |
| COc1cc2c(cc1NC(=O)c1ccc(C(C)(C)C)c(F)c1)CCCCC2 [Compound 53, 4-(tert-Butyl)-3-fluoro-N-(3-methoxy-6,7,8,9-tetrahydro-5H-benzo[7]annulen-2-yl)benzamide] | 2.24 | > 30 |  |
| COc1cc2c(cc1N1Cc3cc(C(C)(C)C)ccc3C1=O)CCCCC2 [Compound 60, 5-(tert-Butyl)-2-(3-methoxy-6,7,8,9-tetrahydro-5H-benzo[7]annulen-2-yl)isoindolin-1-one] | > 10 | > 30 |  |

| Compound | EC90 (Chikungunya virus; [2]) [µM] | CC50 [1] [µM] | EC90 (Chikungunya virus; concentration required for 90% inhibition of CHIKV, read-out: EC90 (μM) CHIKV) [µM] |
| --- | --- | --- | --- |
| COc1cc2c(cc1NC(=O)C1CCOCC1)CCCCC2 [Compound 82, N-(3-methoxy-6,7,8,9-tetrahydro-5H-benzo[7]annulen-2-yl)tetrahydro-2H-pyran-4-carboxamide] | > 10 | > 30 |  |
| COc1cc2c(cc1NC(=O)c1ccc(C(C)(C)O)cc1)CCCCC2 [Compound 46, 4-(2-Hydroxypropan-2-yl)-N-(3-methoxy-6,7,8,9-Tetrahydro-5H-benzo[7]annulen-2-yl)benzamide] | 2.45 | 79.2 |  |
| COc1cc2c(cc1NC(=O)c1ccc(C(O)(C(F)(F)F)C(F)(F)F)cc1)CCCCC2 [Compound 48, 4-(1,1,1,3,3,3-Hexafluoro-2-hydroxypropan-2-yl)-N-(3-methoxy-6,7,8,9-tetrahydro-5H-benzo[7]annulen-2-yl)benzamide] | 2.8 | 28.9 |  |
| COc1cc2c(cc1NC(=O)c1ccc3nonc3c1)CCCCC2 [Compound 40, N-(3-Methoxy-6,7,8,9-tetrahydro-5H-benzo[7]annulen-2-yl)benzo[c][1,2,5]oxadiazole-5-carboxamide] | > 30 | > 30 |  |
| CCCc1ccc(C(=O)Nc2cc3c(cc2OC)CCCCC3)cc1 [Compound 57, N-(3-methoxy-6,7,8,9-tetrahydro-5H-benzo[7]annulen-2-yl)-4-propylbenzamide] | > 10 | > 30 |  |
| CC(C)(C)c1ccc(C(=O)Nc2cc3c(cc2[N+](=O)[O-])CCCCC3)cc1 [Compound 22, 4-(tert-butyl)-N-(3-nitro-6,7,8,9-tetrahydro-5H-benzo[7]annulen-2-yl)benzamide] | > 30 | > 30 |  |
| COc1cc2c(cc1NC(=O)c1ccc(C(C)(C)C)o1)CCCCC2 [Compound 37, 5-(tert-Butyl)-N-(3-methoxy-6,7,8,9-tetrahydro-5H-benzo[7]annulen-2-yl)furan-2-carboxamide] | 23.2 | > 30 |  |
| COc1cc2c(cc1NC(=O)c1ccc(C(C)(C)C#N)cc1)CCCCC2 [Compound 50, 4-(2-Cyanopropan-2-yl)-N-(3-methoxy-6,7,8,9-tetrahydro-5H-benzo[7]annulen-2-yl)benzamide] | 1.16 | 3.57 |  |
| COc1cc2c(cc1NC(=O)c1ccc(Cl)cc1)CCCCC2 [Compound 71, 4-Chloro-N-(3-methoxy-6,7,8,9-tetrahydro-5H-benzo[7]annulen-2-yl)benzamide] | 6.4 | > 30 |  |
| COc1cc2c(cc1NC(=O)c1ccc(C(C)(C)C)cc1)CCCCN2 [Compound 64, 4-(tert-butyl)-N-(8-methoxy-2,3,4,5-tetrahydro-1H-benzo[b]azepin-7-yl)benzamide] | 3.3 | > 30 |  |
| CCn1nc(C(=O)Nc2ccc3c(c2)CCCCC3)cc1C [Compound 26, 1-ethyl-5-methyl-N-(6,7,8,9-tetrahydro-5H-benzo[7]annulen-2-yl)-1H-pyrazole-3-carboxamide] | > 30 | > 30 |  |
| COc1cc2c(cc1NC(=O)c1ccc(C(C)(C)C)cc1)CCCCN2C [Compound 65, 4-(tert-butyl)-N-(8-methoxy-1-methyl-2,3,4,5-tetrahydro-1H-benzo[b]azepin-7-yl)benzamide] | > 30 | > 30 |  |
| CCCOc1cc2c(cc1NC(=O)c1ccc(C(C)(C)C)cc1)CCCCC2 [Compound 86, 4-(tert-Butyl)-N-(3-propoxy-6,7,8,9-tetrahydro-5H-benzo[7]annulen-2-yl)benzamide] | 7 | > 30 |  |
| CC(C)(C)c1ccc(C(=O)Nc2cc3c(cc2O)CCCCC3)cc1 [Compound 15, 4-(tert-butyl)-N-(3-hydroxy-6,7,8,9-tetrahydro-5H-benzo[7]annulen-2-yl)benzamide] | 0.4 | > 30 |  |
| CCn1nc(C(=O)Nc2cc3c(cc2OC)CCCCC3)cc1C [Compound 31, 1-Ethyl-N-(3-methoxy-6,7,8,9-tetrahydro-5H-benzo[7]annulen-2-yl)-5-methyl-1H-pyrazole-3-carboxamide] | 0.79 | > 30 |  |
| COc1cc2c(cc1NC(=O)Cc1cccs1)CCCCC2 [Compound 73, N-(3-Methoxy-6,7,8,9-tetrahydro-5H-benzo[7]annulen-2-yl)-2-(thiophen-2-yl)acetamide] | 18.7 | > 30 |  |
| COc1cc2c(cc1N1Cc3ccc(C(C)(C)C)cc3C1=O)CCCCC2 [Compound 59, 6-(tert-Butyl)-2-(3-methoxy-6,7,8,9-tetrahydro-5H-benzo[7]annulen-2-yl)isoindolin-1-ONE] | > 10 | > 30 |  |
| COc1cc2c(cc1NC(=O)c1ccc(C(C)(C)C)cc1)CCCCC2 [Compound 3, 4-(tert-Butyl)-N-(3-methoxy-6,7,8,9-tetrahydro-5H-benzo[7]annulen-2-yl)benzamide] |  | > 30 |  |
